According to PubChem BioAssay (NCI):
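Test compounds were applied to cells in 96-well plates for 48 hours at 5 doses. Abbreviation: GI50, concentration required for 50% inhibition of growth. TGI denotes the concentration required for complete inhibition of growth.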

Assays:
Experiment in all cases: DTP human tumour cell line panel, 48 h
HCT-116 colon = tested on: HCT-116 colon
SF-268 CNS = tested on: SF-268 CNS
HT29 colon = tested on: HT29 colon
KM12 colon = tested on: KM12 colon
EKVX NSCLC = tested on: EKVX NSCLC
BT-549 breast = tested on: BT-549 breast
SN12C renal = tested on: SN12C renal
MALME-3M melanoma = tested on: MALME-3M melanoma
ACHN renal = tested on: ACHN renal
786-0 renal = tested on: 786-0 renal
SK-MEL-2 melanoma = tested on: SK-MEL-2 melanoma
SF-539 CNS = tested on: SF-539 CNS
SNB-19 CNS = tested on: SNB-19 CNS
NCI/ADR-RES ovarian = tested on: NCI/ADR-RES ovarian
OVCAR-5 ovarian = tested on: OVCAR-5 ovarian
TK-10 renal = tested on: TK-10 renal
HS 578T breast = tested on: HS 578T breast
UACC-257 melanoma = tested on: UACC-257 melanoma
IGROV1 ovarian = tested on: IGROV1 ovarian
DU-145 prostate = tested on: DU-145 prostate
MDA-MB-231 breast = tested on: MDA-MB-231 breast
U251 CNS = tested on: U251 CNS
HCC-2998 colon = tested on: HCC-2998 colon
HOP-92 NSCLC = tested on: HOP-92 NSCLC
T-47D breast = tested on: T-47D breast
MDA-MB-435 = tested on: MDA-MB-435
PC-3 prostate = tested on: PC-3 prostate
SK-MEL-5 melanoma = tested on: SK-MEL-5 melanoma

CCCCNNC(=O)c1ccc(-c2cccc(F)c2F)cc1
TGI (HCT-116 colon): 11.4 µM | GI50 (SF-268 CNS): 4.26 µM | TGI (SF-268 CNS): 18.7 µM | GI50 (HT29 colon): 2.58 µM | TGI (HT29 colon): > 100 µM | GI50 (KM12 colon): 4.04 µM | TGI (KM12 colon): 16.1 µM | GI50 (EKVX NSCLC): 3.32 µM | TGI (EKVX NSCLC): 56.3 µM | GI50 (BT-549 breast): 5.11 µM | TGI (BT-549 breast): > 100 µM | GI50 (SN12C renal): 4.29 µM | TGI (SN12C renal): 79.9 µM | GI50 (MALME-3M melanoma): 0.613 µM | TGI (MALME-3M melanoma): 5.28 µM | GI50 (ACHN renal): 2.3 µM | TGI (ACHN renal): 7.06 µM | GI50 (786-0 renal): 3.75 µM | TGI (786-0 renal): 18.9 µM | GI50 (SK-MEL-2 melanoma): 3.1 µM | TGI (SK-MEL-2 melanoma): 53.6 µM | GI50 (SF-539 CNS): 3.19 µM | TGI (SF-539 CNS): 65.6 µM | GI50 (SNB-19 CNS): 3.23 µM | TGI (SNB-19 CNS): 19.8 µM | GI50 (NCI/ADR-RES ovarian): 0.999 µM | TGI (NCI/ADR-RES ovarian): 6.67 µM | GI50 (OVCAR-5 ovarian): 2.02 µM | TGI (OVCAR-5 ovarian): 16.7 µM | GI50 (TK-10 renal): 0.959 µM | TGI (TK-10 renal): 7.9 µM | GI50 (HS 578T breast): 2.44 µM | TGI (HS 578T breast): 82.4 µM | GI50 (UACC-257 melanoma): 1.39 µM | TGI (UACC-257 melanoma): 31.3 µM | GI50 (IGROV1 ovarian): 2.02 µM | TGI (IGROV1 ovarian): 11.1 µM | GI50 (DU-145 prostate): 2.43 µM | TGI (DU-145 prostate): 43.8 µM | GI50 (MDA-MB-231 breast): 5.49 µM | TGI (MDA-MB-231 breast): 34.3 µM | GI50 (U251 CNS): 2.58 µM | TGI (U251 CNS): 15.2 µM | GI50 (HCC-2998 colon): 1.48 µM | TGI (HCC-2998 colon): 4.11 µM | GI50 (HOP-92 NSCLC): 1.04 µM | TGI (HOP-92 NSCLC): 5.67 µM | GI50 (T-47D breast): 1.14 µM | TGI (T-47D breast): > 100 µM | GI50 (MDA-MB-435): 2.23 µM | TGI (MDA-MB-435): 8.25 µM | GI50 (PC-3 prostate): 3.56 µM | TGI (PC-3 prostate): 27.4 µM | GI50 (SK-MEL-5 melanoma): 1.8 µM | TGI (SK-MEL-5 melanoma): 3.71 µM
